# Data: article PMC3224213, “Bacterial membrane activity of α-peptide/β-peptoid chimeras: Influence of amino acid composition and chain length on the activity against different bacterial strains” (BMC Microbiology, 2011)
# Legend:
# [1] = parameters: method as in PMID 18675778; details: unilamellar liposomes mimicking human cell membranes; ref [24]; cited from earlier work
# [2] = system: S. marcescens; assay: ATP leakage bioluminescence assay; assay type: cell-based, Serratia marcescens; details: 1000 μg/mL chimera
# Method: (§1) Pore formation as caused by peptide addition was determined by measuring ATP leakage from the bacterial cell using a bioluminescence assay. The assay was used to estimate differences between sub-typical chimeras 1, 2 and 3 on S. aureus and S. marcescens and to evaluate the effect of chain length of mixed type chimeras 4a, 4b and 4c on S. aureus. In brief, bacteria were grown in TSB at 37°C for 24 hours and then re-inoculated in TSB at 37°C for 6-8 hours until an absorbance at 546 nm of 2.5 for S. aureus and 2.0 for S. marcescens and then harvested (10 min at 2,000 × g). The bacteria were grown to a high absorbance since a high concentration of bacteria was necessary in order to get a measurable response in the ATP leakage assay. Cells were washed once in 50 mM potassium phosphate buffer (pH 7.0) and once in 50 mM HEPES buffer (pH 7.0), before the pellet was resuspended in HEPES buffer to an OD546 ~ 10, and then stored on ice. Before chimera addition bacteria were pre-incubated with 0.2% (w/v) glucose to energize the cells. In general a chimera dose of 1000 μg/mL (corresponding to 280-552 μM for all chimeras) was used for all assays; however, for determining dose response curves additional doses of 100 (28-55 μM), 250 (71-137 μM) and 500 (140-276 μM) μg/mL were tested, and only the immediate release was noted. Total ATP and extracellular ATP were determined with a luminometer […]. Intracellular volumes of S. aureus and S. marcescens (0.85 μm^3 and 1.7 μm^3, respectively) were subtracted from the total volume before calculating the extracellular ATP concentration; the intracellular ATP concentration could then be calculated from this and the total ATP. ATP leakage kinetics was determined on a bacterial suspension prepared as above. Samples were taken at time 0, 5, 10, 20, 30 and 60 minutes and viable counts determined. Both the ATP leakage assay and killing kinetics performed under the same assay conditions were performed in two independent experiments.
# [3] = system: twelve food-borne and clinical bacterial strains; assay type: cell-based; details: ratio of MIC values, Table 2
# Method: Initial activity experiments were carried out with twelve strains from seven bacterial species representing common laboratory strains and clinical strains derived from both food-borne and nosocomial infections (Table 1). Stock cultures were stored at -80°C in 4% (w/v) glycerol, 0.5% (w/v) glucose, 2% (w/v) skimmed milk powder and 3% (w/v) tryptone soy powder. All experiments were carried out with bacteria incubated for one night (i.e. approximately 18 hours) at 37°C. Experiments were performed in cation-adjusted Mueller Hinton II broth (MHB) (Becton Dickinson 212322) adjusted to pH 7.4 or Tryptone Soy Broth (TSB) (Oxoid CM0129) for the ATP leakage assays. Brain Heart Infusion (BHI) (CM1135) with agar (VWR 20768.292) 1.5% as gelling agent was used throughout for colony plating.
# The Minimum Inhibitory Concentration (MIC) of the chimeras was determined against the spectrum of bacteria using the microdilution method according to guidelines of the Clinical and Laboratory Standards Institute (CLSI). Chimera 1:2 serial dilutions were prepared from 1,024 μg/mL stock solutions to give a final range of 512-0.5 μg/mL in the wells. This corresponds to a final range of 144 to 0.14 μM for the heaviest chimera (i.e. chimera 4c) and of 282 to 0.27 μM for the lightest chimera (i.e. chimera 4a). Colonies grown overnight (i.e. approximately 18 hours) on BHI agar were suspended in 0.9% saline to give a turbidity of 0.13 at OD546 (approximately 1 × 10^8 CFU/mL), and then diluted in MHB pH 7.4 to a final concentration of 5 × 10^5 CFU/mL in each well. Following CLSI guidelines the media for testing of Listeria monocytogenes strains were supplemented with 2.5% lysed horse blood. Polypropylene plates (Nunc 442587) were used to minimize peptide binding and incubation time was 18-20 hours at 37°C. MIC was determined in a minimum of two technical replicates as the lowest concentration of the peptide analogue where no visible growth was found. The Minimum Bactericidal Concentration (MBC) was determined by plating 10 μL of the suspension from the first three wells without growth on BHI agar and incubating these for 24 hours at 37°C. MBC was the lowest concentration at which a 99.9% reduction in CFU/mL was observed. Activity is expressed in μmol/L to enable a direct comparison of analogues with different length (= size).
# [4] = system: S. aureus; assay: ATP leakage bioluminescence assay; assay type: cell-based, Staphylococcus aureus; details: 1000 μg/mL chimera
# Method: as §1
compound,measurement,setting,value
CC(=O)N[C@@H](CCCCN)C(=O)N(CCC(=O)N[C@@H](CCCCN)C(=O)N(CCC(=O)N[C@@H](CCCCN)C(=O)N(CCC(=O)N[C@@H](CCCCN)C(=O)N(CCC(=O)N[C@@H](CCCCN)C(=O)N(CCC(=O)N[C@@H](CCCCN)C(=O)N(CCC(=O)N[C@@H](CCCCN)C(=O)N(CCC(=O)N[C@@H](CCCCN)C(=O)N(CCC(N)=O)[C@@H](C)c1ccccc1)[C@@H](C)c1ccccc1)[C@@H](C)c1ccccc1)[C@@H](C)c1ccccc1)[C@@H](C)c1ccccc1)[C@@H](C)c1ccccc1)[C@@H](C)c1ccccc1)[C@@H](C)c1ccccc1 [Chimera 3],ability to induce calcein leakage,[1],positive response
same,ATP leakage (in words),[2],caused leakage of ATP
same,lower activity compared to chimera 2 against E.coli,[3],2-7 fold
same,lower activity compared to chimera 2 against S. aureus and K. pneumoniae,[3],6-13 fold
same,ATP leakage (in words),[4],caused leakage of ATP
